Ten compounds from patent US9555038B2, “Heterocycle-substituted tetracyclic compounds and methods of use thereof for the treatment of viral diseases” (Merck Sharp & Dohme Corp., priority 2013, dated 2017) can be followed below.

One test deals with HCV replicon 1AY93H. In words: Cell-based HCV Replicon Assay A, replicon 1AY93H. In a few lines: (§1)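 Readout: replicon RNA by real-time RT-PCR, normalised to co-amplified cyclophilin and quantified against replicon total-RNA standard curves. Cells (2000/well) treated 3 days in medium with 5% FBS and 0.5% DMSO, compound in 10 serial dilutions from starting concentrations of 333.3 nM to 1.667 nM.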
A general note: Replicon systems follow genome replication, usually without infectious particles.

The subject of another test is HCV replicon 2B. In words: Cell-based HCV Replicon Assay A, replicon 2B. The gist of the method: as §1
For a further test, the system named is HCV replicon 1A. In words: Cell-based HCV Replicon Assay A, replicon 1A. The gist of the method:
as §1

Where [1] appears, read: Hepatitis C virus, read-out: 1A Y93H IC50 (nM), replicon 1AY93H.
[2] abbreviates: Hepatitis C virus, read-out: 2B IC50 (nM), replicon 2B.
[3] abbreviates: read-out: 1A Y93H IC50, replicon 1AY93H.

Each structure is given as a SMILES string. Read-outs that look alike come from different tables or passages of the source.

The term IC50 denotes the concentration needed to halve the response being measured. On to `COC(=O)N[C@H](C(=O)N1CCC[C@H]1c1ncc(-c2cc(F)c3c(c2)OC(c2nc4ccccc4s2)n2c-3cc3cc(-c4cnc([C@@H]5CCCN5C(=O)[C@@H](NC(=O)OC)C(C)C)[nH]4)ccc32)[nH]1)C(C)C` (single isomer, unassigned) [Compound 401], for which the IC50 with HCV replicon 1AY93H (setting [1]) came to 0.346 nM; in the test on HCV replicon 2B (read-out: 2B IC50, replicon 2B) it was 0.634 nM; in the test with HCV replicon 1A (Hepatitis C virus), 0.0085 nM.

Regarding `COC(=O)N[C@H](C(=O)N1CCC[C@H]1c1ncc(-c2cc(F)c3c(c2)OC(c2cnc(-c4ccccn4)s2)n2c-3cc3cc(-c4cnc([C@@H]5CCCN5C(=O)[C@@H](NC(=O)OC)C(C)C)[nH]4)ccc32)[nH]1)C(C)C` (single isomer, unassigned) [Compound 406], the IC50 was determined as 0.0034 nM with HCV replicon 1AY93H (setting [1]), 0.005 nM in the test with HCV replicon 2B (setting [2]) and 0.003 nM in the test with HCV replicon 1A (Hepatitis C virus).

Regarding `COC(=O)N[C@H](C(=O)N1CCC[C@H]1c1ncc(-c2cc(F)c3c(c2)OC(c2cnc(-c4ccc(C)o4)s2)n2c-3cc3cc(-c4cnc([C@@H]5CCCN5C(=O)[C@@H](NC(=O)OC)C(C)C)[nH]4)ccc32)[nH]1)C(C)C` (single isomer, unassigned) [Compound 413], the IC50 was found to be 0.0196 nM in the test with HCV replicon 1AY93H (setting [1]); 0.173 nM with HCV replicon 2B (read-out: 2B IC50, replicon 2B); 0.0036 nM with HCV replicon 1A (Hepatitis C virus).

In the case of `COC(=O)N[C@H](C(=O)N1CCC[C@H]1c1ncc(-c2cc(F)c3c(c2)OC(c2nc(C(F)(F)F)cs2)n2c-3cc3cc(-c4cnc([C@@H]5CCCN5C(=O)[C@@H](NC(=O)OC)C(C)C)[nH]4)ccc32)[nH]1)C(C)C` (single isomer, unassigned) [Compound 419], the IC50 was found to be 17.9 nM with HCV replicon 1AY93H (setting [3]), 6.47 nM in the test on HCV replicon 2B (setting [2]) and 0.0041 nM in the test on HCV replicon 1A.

For `COC(=O)N[C@H](C(=O)N1CCC[C@H]1c1ncc(-c2cc(F)c3c(c2)OC(c2nc(C(F)(F)F)cs2)n2c-3cc3cc(-c4cnc([C@@H]5CCCN5C(=O)[C@@H](NC(=O)OC)C(C)C)[nH]4)ccc32)[nH]1)C(C)C` (single isomer, unassigned) [Compound 420], the IC50 is 1.87 nM with HCV replicon 1AY93H (setting [3]); 5.56 nM in the test on HCV replicon 2B (read-out: 2B IC50, replicon 2B); 0.0101 nM with HCV replicon 1A.

Consider `CCC(CC)c1ncc(C2Oc3cc(-c4cnc([C@@H]5CCCN5C(=O)[C@@H](NC(=O)OC)C(C)C)[nH]4)cc(F)c3-c3cc4cc(-c5cnc([C@@H]6CCCN6C(=O)[C@@H](NC(=O)OC)C(C)C)[nH]5)ccc4n32)s1` (single isomer, unassigned) [Compound 421], for which the IC50 in the test on HCV replicon 1AY93H (setting [1]) stood at 0.014 nM; in the test with HCV replicon 2B (setting [2]) it was 0.103 nM; in the test with HCV replicon 1A, 0.0037 nM.

Regarding `COC(=O)N[C@H](C(=O)N1CCC[C@H]1c1ncc(-c2cc(F)c3c(c2)OC(c2cscn2)n2c-3cc3cc(-c4cnc([C@@H]5CCCN5C(=O)[C@@H](NC(=O)OC)C(C)C)[nH]4)ccc32)[nH]1)C(C)C` (single isomer, unassigned) [Compound 430], the IC50 in the test on HCV replicon 1AY93H (setting [3]) worked out at 19.5 nM; with HCV replicon 2B (read-out: 2B IC50, replicon 2B), 7.1 nM; in the test with HCV replicon 1A, 0.006 nM.

Consider `COC(=O)N[C@H](C(=O)N1CCC[C@H]1c1ncc(-c2cc(F)c3c(c2)OC(c2cscn2)n2c-3cc3cc(-c4cnc([C@@H]5CCCN5C(=O)[C@@H](NC(=O)OC)C(C)C)[nH]4)ccc32)[nH]1)C(C)C` (single isomer, unassigned) [Compound 431], for which the IC50 with HCV replicon 1AY93H (setting [3]) was found to be 0.56 nM; with HCV replicon 2B (read-out: 2B IC50, replicon 2B) it was 3.1 nM; in the test on HCV replicon 1A, 0.033 nM.

`COC(=O)NC(C(=O)N1[C@@H]2C[C@@H]2C[C@H]1c1ncc(-c2ccc3c(c2)cc2n3C(c3cnc(CC(C)C)s3)Oc3cc(-c4cnc([C@@H]5CCCN5C(=O)[C@@H](NC(=O)OC)C(C)C)[nH]4)cc(F)c3-2)[nH]1)C1CCOC(C)(C)C1` (single isomer, unassigned) [Compound 436]: the half-inhibitory concentration (IC50) in the test on HCV replicon 1AY93H (replicon 1AY93H, read-out: 1A Y93H IC50) is 0.126 nM; in the test with HCV replicon 2B (replicon 2B, read-out: 2B IC50), 0.318 nM; in the test on HCV replicon 1A, 0.0011 nM.

As to `CCCc1ncc(C2Oc3cc(-c4cnc([C@@H]5CCCN5C(=O)[C@@H](NC(=O)OC)C(C)C)[nH]4)cc(C)c3-c3cc4cc(-c5cnc([C@@H]6CCCN6C(=O)C(NC(=O)OC)C(C)(C)F)[nH]5)ccc4n32)s1` (single isomer, unassigned) [Compound 486], the values for the IC50 in the test with HCV replicon 1AY93H (setting [1]), in the test on HCV replicon 2B (setting [2]) and with HCV replicon 1A (Hepatitis C virus) were 0.342 nM, 0.031 nM and 0.0041 nM, respectively.
